Results reported in patent publication US9968619B2, “Method of treating triple-negative breast cancer using thienotriazolodiazepine compounds” (ONCOETHIX GMBH, priority 2014, dated 2018).

What was measured:
Oral exposure in the rat = type: in vivo, Sprague Dawley rats; details: 1 mg/kg intravenous
Procedure: The oral bioavailability of three formulations of solid dispersions of compound (1-1) was determined in rats. The three dispersions chosen were the 25% dispersion of compound (1-1) in PVP, the 25% dispersion of compound (1-1) in HPMCAS-MG, and the 50% dispersion of compound (1-1) in HPMCAS-MG. The animals used in the study were Specific Pathogen Free (SPF) Hsd: Sprague Dawley rats obtained from the Central Animal Laboratory at the University of Turku, Finland. The rats were originally purchased from Harlan, The Netherlands. The rats were female and were ten weeks of age, and 12 rats were used in the study. […]
The oral dosing solutions containing the 25% dispersion of compound (1-1) in PVP, the 25% dispersion of compound (1-1) in HPMCAS-MG, and the 50% dispersion of compound (1-1) in HPMCAS-MG were prepared by adding a pre-calculated amount of sterile water for injection to containers holding the dispersion using appropriate quantities to obtain a concentration of 0.75 mg/mL of compound (1-1). […]
Pharmacokinetic parameters were calculated with the Phoenix WinNonlin software package (version 6.2.1, Pharsight Corp., CA, USA) with standard noncompartmental methods. The elimination phase half-life (t1/2) was calculated by least-squares regression analysis of the terminal linear part of the log concentration-time curve. […]

[1] = Pharmacokinetics and oral bioavailability in dogs; type: in vivo; details: male, beagle, plasma; dog; 1 mg/kg IV; solution in water:ethanol:PEG400 (60:20:20)
Procedure: Blood samples were collected from the jugular vein of each animal at 0 (pre-dose), 5, 15, and 30 minutes and 1, 2, 4, 8, 12, and 24 hours following intravenous administration and at 0 (pre-dose), 15 and 30 minutes and 1, 2, 4, 8, 12, and 24 hours following oral gavage administration. The amount of compound (1-1) present in each sample was detected using a qualified LC-MS/MS method with a lower limit of quantification of 0.5 ng/mL. The area under the plasma concentration-time curve (AUC) was determined by use of the linear trapezoidal rule up to the last measurable concentration without extrapolation of the terminal elimination phase to infinity. The elimination half-life (t1/2) was calculated by least-squares regression analysis of the terminal linear part of the log concentration-ime curve. The maximum plasma concentration (Cmax) and the time to Cmax (tmax) were derived directly from the plasma concentration data. The oral bioavailability (F) was calculated by dividing the dose normalized AUC after oral administration by the dose normalized AUC after intravenous administration and reported as percentages (%).

HCC1937 [2] = assay: Cell counting proliferation, HCC1937; type: cell-based; details: Homo sapiens
MDA-MB-231 = assay: Cell cycle after drug washout, MDA-MB-231; type: cell-based, human; details: 75 nM for 72 h, then 48 h of drug washout
Procedure: (§1) Cells were staining with propidium iodide then analyzed using a FACScan flow cytometer. […] After 72 h of treatment, control and treated cells were washed with PBS and re-incubated with compound (1-1) free medium (drug washout). As show in FIG. 14A-14C, significant differences in the percentage of compound (1-1)-treated cells in the G1, S and G2/M phases with respect to untreated controls were determined by a one-way ANOVA test (p<0.001) followed by an SNK a posteriori test. After washout, significant differences in the percentage of cells in a given cell cycle phase between control and pre-treated cells were determined with the Student t-test for independent samples with equal or different variance, as appropriate. * , × and # means significant difference between treated cells respect and controls in G1 phase (*p<0.05, **p<0.01), G2/M phase (×p<0.05, ××p<0.01) and S phase p<0.05, ## p<0.01), respectively. Each bar and vertical line represents the mean±SEM, respectively (n≥3).

MDA-MB-468 [3] = assay: Cell cycle after drug washout, MDA-MB-468; type: cell-based, human; details: 650 nM for 72 h, then drug washout
Procedure: as §1

MDA-MB-468 [4] = assay: Cell counting proliferation, MDA-MB-468; type: cell-based; details: Homo sapiens
HCC1937 [5] = assay: Cell cycle after drug washout, HCC1937; type: cell-based, human; details: 650 nM for 72 h, then 48 h of drug washout
Procedure: as §1

[6] = HCC1937, 48 h, 48 h exposure, hypoxia (0.1% O2)
[7] = HCC1937, 72 h, 72 h exposure, hypoxia (0.1% O2)
[8] = HCC1937, 72 h, 72 h exposure, normoxia
[9] = MDA-MB-468, 48 h, 48 h exposure, normoxia
[10] = MDA-MB-468, 72 h, 72 h exposure, hypoxia (0.1% O2)
[11] = MDA-MB-468, 72 h, 72 h exposure, normoxia

SMILES: Cc1sc2c(c1C)C(c1ccc(Cl)cc1)=N[C@@H](CC(=O)Nc1ccc(O)cc1)c1nnc(C)n1-2 [Compound (1-1), 2-[(6S)-4-(4-chlorophenyl)-2,3,9-trimethyl-6H-thienol[3,2-f]-[1,2,4]triazolo[4,3-a][1,4]diazepin-6-yl]-N-(4-hydroxyphenyl)acetamide dihydrate]
- CI/F (Oral exposure in the rat): 13.4 mL/min/kg
- Cmax [1]: 0.769 ng/mL
- Emax (HCC1937 [2]; [6]): 27%
- GI50 (HCC1937 [2]; [6]): > 6000 nM
- GI50 (HCC1937 [2]; HCC1937, 48 h, 48 h exposure, normoxia): > 6000 nM
- Emax (HCC1937 [2]; HCC1937, 48 h, 48 h exposure, normoxia, percent with respect to control untreated cells): 31%
- Emax (HCC1937 [2]; [7]): 54%
- GI50 (HCC1937 [2]; [7]): 247 nM
- Emax (HCC1937 [2]; [8]): 70%
- GI50 (HCC1937 [2]; [8]): 262 nM
- cell cycle pattern after drug washout (MDA-MB-231): recovered the control cell cycle pattern
- cell cycle pattern after drug washout (MDA-MB-468 [3]): substantial (p<0.05) accumulation of cells in G2/M phase
- Emax (MDA-MB-468 [4]; MDA-MB-468, 48 h, 48 h exposure, hypoxia (0.1% O2)): 50%
- GI50 (MDA-MB-468 [4]; MDA-MB-468, 48 h, 48 h exposure, hypoxia (0.1% O2), * = apparent value): 60.6 nM
- Emax (MDA-MB-468 [4]; [9]): 30%
- GI50 (MDA-MB-468 [4]; [9]): > 6000 nM
- Emax (MDA-MB-468 [4]; [10]): 71%
- GI50 (MDA-MB-468 [4]; [10]): 251 nM
- Emax (MDA-MB-468 [4]; [11]): 80%
- GI50 (MDA-MB-468 [4]; [11]): 304 nM
- cell cycle pattern after drug washout (HCC1937 [5]): recovered the control cell cycle pattern
